Measurements as given in patent publication US9681661B2, “Method of controlling parasitic weeds with mixtures comprising herbicidal acetolactate synthase inhibitors and plant growth regulators” (BASF Agrochemical Products B.V., priority 2011, dated 2017).

Columns and labels:
[1] = test system: Orobanche cumana (ORACE); test: Field experiment: herbicidal activity against natural Orobanche cumana infestation in sunflower, postemergence treatments; type: in vivo; conditions: Imazamox 50 and/or Prohexadione-Ca 100 g a.i./ha total
Source text: Host test plants were, uniform and homogeneous with respect to age, cultivar, and row spacing and distance in the row. Plot size 2.8 m×10 m-4 rows per plot. Test area was kept weed free of conventional weeds (monocotyledon and dicotyledonous weeds) by hand hoeing. Natural infestations of parasitic weeds were present in the soil of the test areas. Postemergence treatments where performed with up to 4 application timings regarding the growth stage of the host plant. Application timings are specified with M, N, O, and P and related to the following growth stages of the host test plants according to the BBCH-scale” Lancashire, […] Boom, E. Weber and A. Witzenberger, 1991: A uniform decimal code for growth stages of crops and weeds. Ann. appl. […] Sequential application were performed with the solo active components and compared to the respective mixture. The respectively stated components A) and B) were used as commercially available formulations and, with addition of a solvent system, introduced into the spray medium used for applying the active composition. In the examples, the spray medium used was water. […] The test period extended over 1 to 4 month. During this time, the plants were tended, and their response to the individual treatments was evaluated. Evaluation was carried out using a scale from 0 to 100 to express activity (in %). 100% means no emergence of the parasitic plants, or complete destruction of at least the above-ground parts, and 0% means no damage or normal course of growth of the parasitic plants. Good herbicidal activity is given at values of at least 70, and very good herbicidal activity is given at values of at least 85. In the examples below, using the method of S. R. Colby (1967) “Calculating synergistic and antagonistic responses of herbicide combinations”, Weeds 15, p. 22ff., the value E, which is expected if the activity of the individual active compounds is only additive, was calculated. E=X+Y-(X·Y/100) • where • X=percent activity using active component A) at an application rate a; • Y=percent activity using active component B) at an application rate b; • E=expected activity (in %) by A)+B) at application rates a+b. If the value found experimentally is higher than the value E calculated according to Colby, a synergistic effect is present. The herbicidal activity of the tested compositions against Orobanche cumana (ORACE) according to the invention is compiled in table V.

[2] = test system: sunflower; test: Field experiment: yield of sunflower seeds under Orobanche infestation; type: in vivo, Helianthus annuus L.; conditions: Imazamox 30 g/ha at BBCH 14-15 and 20 g/ha at BBCH 16-18; Prohexadione-Ca 60 g/ha at BBCH 14-15 and 40 g/ha at BBCH 16-18; untreated 1127
[3] = test system: Orobanche sp. (ORASS); test: Field experiment: delay of weed emergence and number of Orobanche plants per host plant in imazamox tolerant sunflower; type: in vivo; conditions: Imazamox 30 g/ha at BBCH 14-15 and 20 g/ha at BBCH 16-18, Prohexadione-Ca 60 g/ha at BBCH 14-15 and 40 g/ha at BBCH 16-18; for first visible emergence of orobanche (DAT): untreated 22
[4] = test system: Orobanche sp. (ORASS); test: Impact of host infestation with Orobanche, tank mixture versus single application, score 1 to 10; type: in vivo; conditions: 21 days after treatment; application at BBCH 16-18; Imazamox 15 g/ha, Prohexadione-Ca 75 g/ha; value 1 (no infestation) to 10 (high negative impact)
Source text: Seeds of sunflower (Helianthus annuus L.) where sown as host test plants using small scale field experiment equipment. Host test plants were, uniform and homogeneous with respect to age, cultivar, and row spacing and distance in the row. Plot size 2.8 m×10 m—4 rows per plot. Test area was kept weed free of conventional weeds (monocotyledon and dicotyledonous weeds) by hand hoeing. Natural infestations of parasitic weeds were present in the soil of the test areas. Sequential application were performed with the solo active components and compared to the respective mixture. The respectively stated components A) and B) were used as commercially available formulations and, with addition of a solvent system, introduced into the spray medium used for applying the active composition. In the examples, the spray medium used was water.

[5] = test system: Orobanche cumana; conditions: reported in EP 0123001 (A1) / Fan et al., Weed Research 2007; cited from earlier work
[6] = timing M, N, O, P (BBCH growth stage), scale 0 to 100, 100 = no emergence or complete destruction
[7] = timing M, O (BBCH growth stage), scale 0 to 100
[8] = timing N, P (BBCH growth stage), scale 0 to 100

| Molecule | activity in % [1, 6] | activity in % [1, 7] | activity in % [1, 8] | yield of sunflower seeds [2] | no. of orobanche plants per host plant [3] | first visible emergence of orobanche (DAT) [3] | impact of host infestation with ORASS [4] | sunflower resistance against infection with Orobanche cumana [5] |
| --- | --- | --- | --- | --- | --- | --- | --- | --- |
| COCc1cnc(C2=NC(C)(C(C)C)C(=O)N2)c(C(=O)O)c1 (stereo not drawn) [Imazamox, imazamox] | 69% | 67% | 68% | 2055 kg/ha | 15 | 81 DAT | 4 |  |
| prohexadione-calcium | 2% | 5% | 8% | 961 kg/ha | 55 | 63 DAT | 6 | induces sunflower resistance |
